From ChEMBL document CHEMBL1671751, “FRET-based sensors for the human M1-, M3-, and M5-acetylcholine receptors” (Bioorg Med Chem, 2011)

Key:
[1] = molecular target: Muscarinic acetylcholine receptor M3 (Homo sapiens, UniProt P20309); experiment: Activation of M3-ACh receptor-FLASH/CFP expressed in HEK293 cells assessed as FRET signal; format: cell-based
[2] = molecular target: T1, Muscarinic acetylcholine receptor M5 (Homo sapiens) (UniProt P08912); experiment: Agonist activity at M5-ACh receptor-FLASH/CFP expressed in HEK293 cells assessed as rate constant at 100 uM to 1 mM by FRET method; format: functional, cell-based
T1 sequence (whole entry): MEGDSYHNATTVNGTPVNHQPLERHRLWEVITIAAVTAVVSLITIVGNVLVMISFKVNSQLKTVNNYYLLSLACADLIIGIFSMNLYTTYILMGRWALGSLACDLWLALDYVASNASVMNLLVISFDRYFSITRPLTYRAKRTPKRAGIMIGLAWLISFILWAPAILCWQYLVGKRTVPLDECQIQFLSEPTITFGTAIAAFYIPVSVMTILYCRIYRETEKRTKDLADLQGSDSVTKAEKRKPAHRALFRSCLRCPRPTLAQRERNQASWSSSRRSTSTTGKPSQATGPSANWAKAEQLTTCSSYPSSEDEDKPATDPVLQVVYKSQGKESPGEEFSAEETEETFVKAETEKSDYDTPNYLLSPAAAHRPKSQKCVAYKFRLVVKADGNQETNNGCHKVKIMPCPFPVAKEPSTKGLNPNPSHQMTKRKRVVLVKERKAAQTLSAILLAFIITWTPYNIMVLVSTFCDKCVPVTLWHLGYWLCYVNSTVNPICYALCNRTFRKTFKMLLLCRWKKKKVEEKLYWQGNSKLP

[3] = molecular target: T1, Muscarinic acetylcholine receptor M5 (Homo sapiens); experiment: Agonist activity at M5-ACh receptor-FLASH/CFP expressed in HEK293 cells assessed as half-maximal activation time at 100 uM to 1 mM by FRET method; format: functional, cell-based
[4] = molecular target: T2, Muscarinic acetylcholine receptor M5 (Homo sapiens, UniProt P08912); experiment: Activation of M5-ACh receptor-FLASH/CFP expressed in HEK293 cells assessed as FRET signal; format: cell-based
T2 sequence (P08912 whole entry): T1 sequence (whole entry)

[5] = molecular target: T3, Muscarinic acetylcholine receptor M1 (Homo sapiens, UniProt P11229); experiment: Activation of M1-ACh receptor-FLASH/CFP expressed in HEK293 cells assessed as FRET signal; format: cell-based
T3 sequence (P11229 whole entry): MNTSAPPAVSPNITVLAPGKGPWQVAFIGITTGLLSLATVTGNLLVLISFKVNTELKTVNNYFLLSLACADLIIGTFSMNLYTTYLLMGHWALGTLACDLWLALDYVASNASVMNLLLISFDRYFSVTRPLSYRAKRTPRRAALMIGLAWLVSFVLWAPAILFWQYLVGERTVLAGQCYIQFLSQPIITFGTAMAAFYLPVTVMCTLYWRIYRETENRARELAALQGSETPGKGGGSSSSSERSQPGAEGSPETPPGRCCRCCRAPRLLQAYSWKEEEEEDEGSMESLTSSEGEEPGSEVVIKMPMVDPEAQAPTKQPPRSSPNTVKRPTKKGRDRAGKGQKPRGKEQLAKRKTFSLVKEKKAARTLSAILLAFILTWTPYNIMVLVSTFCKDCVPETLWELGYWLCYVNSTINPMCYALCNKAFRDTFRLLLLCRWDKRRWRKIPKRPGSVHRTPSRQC

Muscarinic acetylcholine receptor M3, sequence (P20309 whole entry): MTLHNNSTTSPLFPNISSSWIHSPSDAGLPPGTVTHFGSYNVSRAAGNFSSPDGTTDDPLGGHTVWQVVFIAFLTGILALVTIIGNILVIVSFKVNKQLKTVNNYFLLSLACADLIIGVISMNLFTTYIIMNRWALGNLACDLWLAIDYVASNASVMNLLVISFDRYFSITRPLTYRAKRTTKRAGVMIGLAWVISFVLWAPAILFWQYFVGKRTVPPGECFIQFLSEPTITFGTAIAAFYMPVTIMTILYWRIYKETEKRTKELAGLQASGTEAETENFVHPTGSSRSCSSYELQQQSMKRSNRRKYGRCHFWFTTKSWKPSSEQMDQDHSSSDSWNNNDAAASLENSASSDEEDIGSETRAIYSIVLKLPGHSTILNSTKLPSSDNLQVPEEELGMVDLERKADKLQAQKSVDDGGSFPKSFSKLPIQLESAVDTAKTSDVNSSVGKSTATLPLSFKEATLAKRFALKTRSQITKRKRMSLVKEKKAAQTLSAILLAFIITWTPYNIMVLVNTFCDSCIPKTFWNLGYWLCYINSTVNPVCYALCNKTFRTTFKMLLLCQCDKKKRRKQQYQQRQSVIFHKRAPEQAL

Row | SMILES | EC50 [1] [nM] | Activity [2] [s⁻¹] | TIME [3] [h] | EC50 [4] [nM] | EC50 [5] [nM]
1 | C[C@@H]1O[C@H](C[N+](C)(C)C)C[C@H]1O [MUSCARINE CHLORIDE] | 1000 | 13.9 | 2e-05 | 1300 | –
2 | C[N+](C)(C)CCOC(N)=O | – | 14.7 | 1.89e-05 | – | –
3 | C[N+](C)(C)CC#CCN1CCCC1=O [OXOTREMORINE METHIODIDE] | 1800 | 9.6 | 2.89e-05 | 2300 | 7400
4 | CC(=O)OCC[N+](C)(C)C | – | 15.4 | 1.81e-05 | – | –
